pIC50: −log10 of the molar value.
Molecular target: T1, Human CGRP1 Receptor (Homo sapiens, UniProt O60894+Q16602)
T1 construct: endogenous in cells; host or cells: SK-N-MC cells (membrane homogenate)
Experiment: CGRP Binding Assay ([125I]-CGRP radioligand displacement, SK-N-MC membrane homogenate)
Settings: [125I]-CGRP displacement, SK-N-MC homogenate, room temperature 2 h; read-out: Human CGRP1 Receptor IC50

T1 sequence (Q16602 23-461): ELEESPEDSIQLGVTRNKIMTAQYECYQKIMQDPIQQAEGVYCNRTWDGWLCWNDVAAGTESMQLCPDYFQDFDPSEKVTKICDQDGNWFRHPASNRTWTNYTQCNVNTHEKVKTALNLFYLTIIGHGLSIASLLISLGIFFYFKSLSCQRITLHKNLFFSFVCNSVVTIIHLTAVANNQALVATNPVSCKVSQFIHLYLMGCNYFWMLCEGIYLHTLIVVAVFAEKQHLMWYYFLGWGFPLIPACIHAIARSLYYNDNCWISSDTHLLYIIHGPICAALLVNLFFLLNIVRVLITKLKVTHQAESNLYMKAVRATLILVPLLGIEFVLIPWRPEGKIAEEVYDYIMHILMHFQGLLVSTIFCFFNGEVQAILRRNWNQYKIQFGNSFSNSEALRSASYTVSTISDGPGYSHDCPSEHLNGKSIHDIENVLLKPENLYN
T1 sequence (O60894 27-148): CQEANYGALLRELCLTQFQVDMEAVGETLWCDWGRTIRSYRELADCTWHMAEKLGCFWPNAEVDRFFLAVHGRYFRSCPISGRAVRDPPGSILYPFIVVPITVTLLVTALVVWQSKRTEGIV

Compared with `Cc1cc(CC(OC(=O)N2CCC(N3Cc4ccccc4NC3=O)CC2)c2ccco2)cc2cn[nH]c12` (stereo not drawn) [Example 56, 1-(Furan-2-yl)-2-(7-methyl-1H-indazol-5-yl)ethyl 4-(2-oxo-1,2-dihydroquinazolin-3(4H)-yl)piperidine-1-carboxylate], `Cc1cc(CC(OC(=O)N2CCC(N3Cc4ccccc4NC3=O)CC2)c2ccncc2)cc2cn[nH]c12` (stereo not drawn) [Example 57, 2-(7-Methyl-1H-indazol-5-yl)-1-(pyridin-4-yl)ethyl 4-(2-oxo-1,2-dihydroquinazolin-3(4H)-yl)piperidine-1-carboxylate] is lower in pIC50: 7.00 to 8.00 for the first, 6.00 to 7.00 for the second. The first is the more potent here.

`Cc1cc(CC(OC(=O)N2CCC(N3Cc4ccccc4NC3=O)CC2)c2cccnc2)cc2cn[nH]c12` (stereo not drawn) [Example 58, 2-(7-Methyl-1H-indazol-5-yl)-1-(pyridin-3-yl)ethyl 4-(2-oxo-1,2-dihydroquinazolin-3(4H)-yl)piperidine-1-carboxylate] and `Cc1cc(CC(OC(=O)N2CCC(N3Cc4cccc(F)c4NC3=O)CC2)c2cccnc2)cc2cn[nH]c12` (stereo not drawn) [Example 59, 2-(7-Methyl-1H-indazol-5-yl)-1-(pyridin-3-yl)ethyl 4-(8-fluoro-2-oxo-1,2-dihydroquinazolin-3(4H)-yl)piperidine-1-carboxylate] fall in the same range of pIC50: 6.00 to 7.00 for the first, 6.00 to 7.00 for the second.

Compared with `Cc1cc(CC(OC(=O)N2CCC(N3Cc4cccc(F)c4NC3=O)CC2)c2ccco2)cc2cn[nH]c12` (stereo not drawn) [Example 60, 1-(Furan-2-yl)-2-(7-methyl-1H-indazol-5-yl)ethyl 4-(8-fluoro-2-oxo-1,2-dihydroquinazolin-3(4H)-yl)piperidine-1-carboxylate], `Cc1cc(CC(OC(=O)N2CCC(N3Cc4ccccc4NC3=O)CC2)c2ccc3ccccc3n2)cc2cn[nH]c12` (stereo not drawn) [Example 61, 2-(7-Methyl-1H-indazol-5-yl)-1-(quinolin-2-yl)ethyl 4-(2-oxo-1,2-dihydroquinazolin-3(4H)-yl)piperidine-1-carboxylate] is higher in pIC50: 7.00 to 8.00 for the first, > 8.00 for the second.

`Cc1cc(C)nc(C(Cc2cc(C)c3[nH]ncc3c2)OC(=O)N2CCC(c3cc4ccccc4[nH]c3=O)CC2)n1` (stereo not drawn) [Example 62, 1-(4,6-Dimethylpyrimidin-2-yl)-2-(7-methyl-1H-indazol-5-yl)ethyl 4-(2-oxo-1,2-dihydroquinolin-3-yl)piperidine-1-carboxylate] and `Cc1cc(C)nc(C(Cc2cc(C)c3[nH]ncc3c2)OC(=O)N2CCC(N3Cc4cccc(F)c4NC3=O)CC2)n1` (stereo not drawn) [Example 63, 1-(4,6-Dimethylpyrimidin-2-yl)-2-(7-methyl-1H-indazol-5-yl)ethyl 4-(8-fluoro-2-oxo-1,2-dihydroquinazolin-3(4H)-yl)piperidine-1-carboxylate] fall in the same range of pIC50: 6.00 to 7.00 for the first, 6.00 to 7.00 for the second.

First: Cc1cc(CC(OC(=O)N2CCC(N3Cc4ccccc4NC3=O)CC2)c2cc3ccccc3o2)cc2cn[nH]c12 (stereo not drawn) [Example 64, 1-(Benzofuran-2-yl)-2-(7-methyl-1H-indazol-5-yl)ethyl 4-(2-oxo-1,2-dihydroquinazolin-3(4H)-yl)piperidine-1-carboxylate]
Second: Cc1cc(C[C@@H](OC(=O)N2CCC(c3cc4ccccc4[nH]c3=O)CC2)c2nccn2Cc2cc(F)cc(F)c2)cc2cn[nH]c12 [Example 78, (R)-1-(1-(3,5-difluorobenzyl)-1H-imidazol-2-yl)-2-(7-methyl-1H-indazol-5-yl)ethyl 4-(2-oxo-1,2-dihydroquinolin-3-yl)piperidine-1-carboxylate]
The pIC50 of the first is lower: 7.00 to 8.00 for the first, > 8.00 for the second.

`Cc1cc(C[C@@H](NC(=O)N2CCC(N3Cc4ccccc4NC3=O)CC2)c2ncc3ccccn23)cc2cn[nH]c12` [Example 85, (R)-N-(1-(H-Imidazo[1,5-a]pyridin-3-yl)-2-(7-methyl-1H-indazol-5-yl)ethyl)-4-(2-oxo-1,2-dihydroquinazolin-3(4H)-yl)piperidine-1-carboxamide] and `CC1=CC(CC(CC(=O)N2CCC(N3Cc4ccccc4NC3=O)CC2)c2nccn2Cc2ccc(C(C)(C)C)cc2)=CC2C=NNC12` (stereo not drawn) [Example 95, 3-(1-(3-(1-(4-tert-Butylbenzyl)-1H-imidazol-2-yl)-4-(7-methyl-3a,7a-dihydro-1H-indazol-5-yl)butanoyl)piperidin-4-yl)-3,4-dihydroquinazolin-2(1H)-one] cannot be ordered by pIC50: > 8.00 for the first, > 8.00 for the second.

`CC1=CC(CC(CC(=O)N2CCC(N3Cc4cccc(F)c4NC3=O)CC2)c2nccn2Cc2ccc(C(C)(C)C)cc2)=CC2C=NNC12` (stereo not drawn) [Example 96, 3-(1-(3-(1-(4-tert-Butylbenzyl)-1H-imidazol-2-yl)-4-(7-methyl-3a,7a-dihydro-1H-indazol-5-yl)butanoyl)piperidin-4-yl)-8-fluoro-3,4-dihydroquinazolin-2(1H)-one] and `CC1=CC(CC(CC(=O)N2CCC(N3Cc4ccccc4NC3=O)CC2)c2nccn2Cc2ccncc2)=CC2C=NNC12` (stereo not drawn) [Example 97, 3-(1-(4-(7-Methyl-3a,7a-dihydro-1H-indazol-5-yl)-3-(1-(pyridin-4-ylmethyl)-1H-imidazol-2-yl)butanoyl)piperidin-4-yl)-3,4-dihydroquinazolin-2(1H)-one] cannot be ordered by pIC50: > 8.00 for the first, > 8.00 for the second.

`CC1=CC(CC(CC(=O)N2CCC(N3Cc4ccccc4NC3=O)CC2)c2nc3ccccc3[nH]2)=CC2C=NNC12` (stereo not drawn) [Example 98, 3-(1-(3-(1H-Benzo[d]imidazol-2-yl)-4-(7-methyl-3a,7a-dihydro-1H-indazol-5-yl)butanoyl)piperidin-4-yl)-3,4-dihydroquinazolin-2(1H)-one] and `CCn1c(C(CC(=O)N2CCC(N3Cc4ccccc4NC3=O)CC2)CC2=CC3C=NNC3C(C)=C2)nc2ccccc21` (stereo not drawn) [Example 99, 3-(1-(3-(1-Ethyl-1H-benzo [d]imidazol-2-yl)-4-(7-methyl-3a,7a-dihydro-1H-indazol-5-yl)butanoyl)piperidin-4-yl)-3,4-dihydroquinazolin-2(1H)-one] cannot be ordered by pIC50: > 8.00 for the first, > 8.00 for the second.

First: Cc1cc(C[C@@H](OC(=O)N2CCC(c3cc4ccccc4[nH]c3=O)CC2)c2nc(-c3ccc(F)cc3)no2)cc2cn[nH]c12 [Example 100, (R)-1-(3-(4-Fluorophenyl)-1,2,4-oxadiazol-5-yl)-2-(7-methyl-1H-indazol-5-yl)ethyl 4-(2-oxo-1,2-dihydroquinolin-3-yl)piperidine-1-carboxylate]
Second: Cc1cc(C[C@@H](OC(=O)N2CCC(N3Cc4ccccc4NC3=O)CC2)c2nc(-c3ccncc3)no2)cc2cn[nH]c12 [Example 101, (R)-2-(7-Methyl-1H-indazol-5-yl)-1-(3-(pyridin-4-yl)-1,2,4-oxadiazol-5-yl)ethyl 4-(2-oxo-1,2-dihydroquinazolin-3(4H)-yl)piperidine-1-carboxylate]
The pIC50 of the first is lower: 6.00 to 7.00 for the first, 7.00 to 8.00 for the second. The second is the more potent here.

`Cc1cc(C[C@@H](OC(=O)N2CCC(c3cc4ccccc4[nH]c3=O)CC2)c2nc(-c3cccnc3)no2)cc2cn[nH]c12` [Example 102, (R)-2-(7-Methyl-1H-indazol-5-yl)-1-(3-(pyridin-3-yl)-1,2,4-oxadiazol-5-yl)ethyl 4-(2-oxo-1,2-dihydroquinolin-3-yl)piperidine-1-carboxylate] and `CCOC(=O)c1noc([C@@H](Cc2cc(C)c3[nH]ncc3c2)OC(=O)N2CCC(c3cc4ccccc4[nH]c3=O)CC2)n1` [Example 103, (R)-1-(3-(Ethoxycarbonyl)-1,2,4-oxadiazol-5-yl)-2-(7-methyl-1H-indazol-5-yl)ethyl 4-(2-oxo-1,2-dihydroquinolin-3-yl)piperidine-1-carboxylate] fall in the same range of pIC50: 7.00 to 8.00 for the first, 7.00 to 8.00 for the second.

In the case of “(±)-4-(2-Oxo-1,4-dihydro-2H-quinazolin-3-yl)-piperidine-1-carboxylic acid [2-(7-ethyl-3-methyl-1H-indazol-5-yl)-1-pyridin-4-yl methyl-1H-tetrazol-5-yl)-ethyl]-amide [Example 19]”, the pIC50 was > 8.00.

From US7569578B2, “Heterocyclic anti-migraine agents” (Bristol-Meyers Squibb Company, priority 2003, dated 2009)
